Experimental data reported in patent US9486502B2, “Methods of administering interferon gamma to absorb fluid from the subretinal space” (The United States of America, as represented by the …, priority 2008, dated 2016).

What was measured:
hfRPE monolayers = assay: fluid transport (JV, TEP, RT) across hfRPE monolayers in modified Üssing chamber; format: cell-based, human; details: for effect on the effects of IFNγ on JV: Rp-8-Br-cAMPS 2 μM pretreatment
Description: Confluent monolayers of hfRPE cultured on transwells were mounted in a modified Üssing chamber and transepithelial water flow measurements (JV) were made with a capacitance probe technique as described previously in Maminishkis, A., et al., Invest Ophthalmol Vis Sci, 2006, 47, 3612-3624; Shi, G., et al., Invest Ophthalmol Vis Sci, 2008, 49, 4620-4630; Edelman, J. L., et al., Invest Ophthalmol Vis Sci, 1991, 32, 3033-3040; Jiang, C., et al., Science, 1993, 262, 424-427; and Maminishkis, A., et al., Invest Ophthalmol Vis Sci, 2002, 43, 3555-3566, each incorporated herein by reference in its entirety.
Tissue viability was ascertained by recording transepithelial potential (TEP) and total tissue resistance (RT). It should be noted that the solution composition changes in this chamber were relatively slow (≈1-2 chamber volumes per minute) and the data sampling rate was once per minute, more than two orders of magnitude slower than the sampling rate in the electrophysiology chamber (see below). Therefore it was not possible to record fast changes, in seconds or minutes, in JV, TEP, or RT. After addition of IFNγ to the apical or basal baths, steady-state JV, TEP, and RT were recorded for 20-30 minutes. In control experiments, successive additions of IFNγ were made to test for the repeatability and reversibility of responses. To block IFNγ effects, RPE cells were incubated for 30-60 minutes with a blocking antibody against IFNγ R1, JAK inhibitor I, PKA inhibitors (H-89, EMD Biosciences; RP-8-Br-cAMPS, Sigma-Aldrich), nitric oxide synthase inhibitor (aminoguanidine hydrochloride, Sigma-Aldrich), P38 MAPK inhibitors (SB203580 or SB20290), or CHX. Other components of this signaling pathway were studied using P38 MAPK inhibitors (SB203580 and SB202190). Relatively specific Cl channel inhibitors, CFTRinh-172 or DIDS (EMD Biosciences, La Jolla, Calif.), were used to block cAMP or Ca^2+-activated Cl channels; experiments with CFTRinh-172 were performed as described in Muanprasat, C., et al., J Gen Physiol, 2004, 124, 125-137, incorporated herein by reference in its entirety. In chronic experiments, paired hfRPE tissues with matched RT values were incubated for 4-24 hours with IFNγ or CHX. The subsequent changes in JV, RT, and TEP were measured in Ringer's solution or serum free cell culture media as previously described in Shi, G., et al., Invest Ophthalmol Vis Sci, 2008 and Maminishkis, A., et al., Invest Ophthalmol Vis Sci, 2006, 47, 3612-3624, each incorporated herein by reference in its entirety. Intracellular levels of NO were elevated with 1-Hydroxy-2-oxo-3-(3-aminopropyl)-3-isopropyl-1-triazene (NOC-5, Enzo Life Sciences, Plymouth, Pa.). 8-Br-cGMP was purchased from Sigma-Aldrich.

rat RPE = assay: in vivo retinal re-attachment assay (OCT)
Procedure: All animal experiments were conducted in compliance with the ARVO Statement for the use of Animals in Ophthalmic and Vision Research, and the protocol was approved by the Animal Care and Use Committee of the National Institutes of Health. The procedures have been described in detail in Maminishkis, A., et al., Invest Ophthalmol Vis Sci, 2006, 47, 3612-3624, incorporated by reference in its entirety herein. Briefly, retinal detachments were created in long-Evans rats by injecting 0.5 to 3 μl of modified phosphate-buffered saline (MPBS) Ringer's solution into the sub-retinal space (SRS), which separates the photoreceptor outer segments and the apical membrane of the RPE. In the control portion of each experiment (at 0-70 minutes after creation of the retinal detachment), the rate of change of bleb volume was measured. The control period of “constant” volume was defined by JV≦2 μl hr cm over at least 40 minutes. Any control injections that exceeded this threshold rate were rejected from subsequent analysis.
IFNγ was dissolved in MPBS, mixed with Celluvisc® solution (1:1) and applied as eye-drops (0.4 mL). Optical coherence tomography (OCT) imaging (Institute of Applied Physics, Russian Academy of Science, Nizhniy Novgorod, Russia) was used to measure the time course of the detachment volume change.
A previously tested in vivo rodent model of retinal detachment was used to measure the effect of IFNγ on re-absorption following retinal detachment, as described in Example 11 and in Maminishkis, A., et al., Invest Ophthalmol Vis Sci, 2002, 43, 3555-3566, incorporated herein by reference in its entirety. Initial detachment was created by injecting approximately 1 μl of osmotically-balanced, modified phosphate-buffered saline (MPBS) Ringer's solution into the extracellular space, i.e. the sub-retinal space (SRS). After stabilization of the detachment, IFNγ (40 μl of 100 ng/ml) was added to the anterior surface of the eye via eye drops (Celluvisc®). A series of 3D OCT images were recorded at different time points.

hfRPE cells [1] = assay: BrdU incorporation assay, hfRPE proliferation; format: cell-based, human; details: for effect on the IFNγ effect on hfRPE proliferation: added one hour prior to IFNγ; for effect on hfRPE proliferation (BrdU incorporation): 0.5-80 ng/ml
Procedure: BrdU incorporation was performed as described in Li, R. et al., 2007, Invest Ophthalmol Vis Sci, 48, 5722-5732, incorporated by reference in its entirety herein. IFNγ, TNFα, and IL-1β were obtained from Peprotech, Rocky Hill, N.J., and Universal Type I Interferon (cat: 11200-1) or human interferon beta la were from PBL biomedical laboratories (New Brunswick, N.J.). Cumulative effects were measured by adding VEGF165, EGF and bFGF (Peprotech), and PDGF-BB (R & D Systems) with IFNγ. Anti-human IFNγ R1 blocking antibody (R & D Systems, Minneapolis, Minn.), JAK inhibitor I, AG490, or JAK3 inhibitor II (EMD Biosciences, Gibbstown, N.J.) was added to the cells one hour prior to the addition of IFNγ. SFM was used as the negative control and SFM supplemented with 5% serum was used as positive control. After treatment for 48 hours, RPE cells were incubated with BrdU for 24 hours. The proliferation rate was evaluated using a Cell proliferation ELISA BrdU Kit (Roche, Ind.). Quadruplicate wells were used for each condition and the experiments were repeated at least two times using cell cultures from different donors. Cell viability was evaluated using a Live/Dead Viability/Cytotoxicity Kit (Invitrogen).

[2] = multiple instillations per day for months; literature; cited from earlier work
hfCHC cells = assay: BrdU incorporation assay, human fetal choroidal cell proliferation; format: cell-based
hfRPE cells [3] = assay: wound healing assay, hfRPE migration; format: cell-based, human; details: 48 hours, proliferation suppressed with mitomycin C
Procedure: The wound healing assay was used to study the effects of inflammatory cytokines on hfRPE cell migration, as described previously in Li, R., et al. Invest Ophthalmol Vis Sci, 2007, 48, 5722-5732, incorporated herein by reference in its entirety. Cell proliferation was suppressed by incubation with 10 μg/ml mitomycin C (Sigma) for 2 hours before all migration experiments. A circular denuded area (7 mm in diameter) was made in each well using a custom designed cell scraper. After incubation with various inflammatory cytokines for 48 hours, cells were fixed with cold methanol and stained with ethidium homodimer-1 (EthD-1, Invitrogen) according to the manufacturer's instructions. Cell migration was quantified by counting the average number of cells that migrated into the denuded area in 16 microscope fields surrounding the circumference of the denuded area. Each condition was tested in triplicate and repeated using cells from different donors.

[4] = Phase I study of topical interferon gamma-1b in CME secondary to uveitis (OCT macular thickness); format: in vivo, human; details: patients with CME secondary to uveitis, topical instillation(s), OCT post-instillation
Description: To test whether cystoid macular edema (CME), secondary to uveitis, is caused by the disequilibrium of the Jak/Stat and mTor signal transduction pathways in the retinal pigment epithelium (RPE), interferon gamma-1β topically applied in human patients. Five participants with CME secondary to uveitis receive a topical ocular instillation of interferon gamma-1b in a Phase I, non-randomized, prospective, uncontrolled, dose-escalation, single-center study. The study involves a one-time instillation or series of instillations of interferon gamma-1b on the cornea and measurement of a response with optical coherence tomography (OCT) over a three hour period.
A 25% decrease in macular thickness is observed at a post-instillation as compared to baseline. In the study, the first two participants receive one instillation (each instillation contains […] in 0.05 mL solution) on the cornea at time zero, the next two participants receive two instillations, 10 minutes apart, for a total dosage of 20 μg, and the final participant receives three instillations, 10 minutes apart, for a total of 30 μg. OCT will be obtained at −60 minutes, −30 minutes and just before the instillation(s). […]
Participants with CME secondary to uveitis are treated with ocular instillation(s) of interferon gamma-1b. […] The effect on the retinal thickness is measured using OCT measurements as indicated below. […]

Nc1ncnc2c1nc(Br)n2C1OC2COP(O)(=S)OC2C1O (stereo not drawn) [Rp-8-Br-cAMPS]
effect on the effects of IFNγ on JV (hfRPE monolayers): completely blocked | effect on the effects of IFNγ on JV (hfRPE monolayers; listed as Rp-8-Br-cAMPs): blocked | effect on baseline JV (hfRPE monolayers; Rp-8-Br-cAMPS 2 μM, approximately 40 minutes): no effect | JV after Rp-8-Br-cAMPS (hfRPE monolayers; six experiments, steady-state baseline 8.9±1.2): 10.4±2.0 μl·cm^−2·hr^−1 | reduction in IFNγ-induced absorption rate (rat RPE; PKA inhibitor alone injected into subretinal space, FIG. 23D): ~40% | effect on IFNγ induced decrease in detachment volume (rat RPE; pre-injection of 50 μM PKA inhibitor alone): partially blocked

IFNα
effect of type I IFN on hfRPE proliferation (hfRPE cells [1]; data not shown): no effect | side effects reported from topical administration [2]: follicular conjunctivis and conjunctival injection

JAK inhibitor I
effect on the IFNγ effect on hfRPE proliferation (hfRPE cells [1]): block | effect on base level of fluid transport (JV) (hfRPE monolayers; JAK inhibitor I 5 μM alone): no significant effect | effect on IFNγ increase in JV (hfRPE monolayers; JAK inhibitor I 5 μM, 0.5-1 hours prior to IFNγ): significantly blocked

TNFα
effect on hfCHC (human fetal choroidal) cell proliferation (hfCHC cells): significantly stimulated | effect on hfRPE proliferation (BrdU incorporation) (hfRPE cells [1]): weak stimulatory effect | concentration at which the stimulatory effect reached statistical significance (hfRPE cells [1]; P <0.05): 80 ng/mL | effect on hfRPE cell migration (hfRPE cells [3]): no significant effect

N#C/C(=C\c1ccc(O)c(O)c1)C(=O)NCc1ccccc1 [AG490, reference compound]
effect on the IFNγ effect on hfRPE proliferation (hfRPE cells [1]): block

COc1cc2ncnc(Nc3ccc(O)c(Br)c3)c2cc1OC [JAK3, reference compound]
effect on the IFNγ effect on hfRPE proliferation (hfRPE cells [1]): not

IL-1β: inflammatory cytokine obtained from Peprotech; ICM component
effect on hfCHC (human fetal choroidal) cell proliferation (hfCHC cells): significantly stimulated | effect on hfRPE proliferation (BrdU incorporation) (hfRPE cells [1]): no significant effect | effect on hfRPE cell migration (hfRPE cells [3]): no significant effect

B1: interferon gamma-1b: biologic response modifier, single chain polypeptide containing 140 amino acids (Actimmune®) (protein, UniProt P01579 24-161, looked up)
Interferon gamma: QDPYVKEAENLKKYFNAGHSDVADNGTLFLGILKNWKEESDRKIMQSQIVSFYFKLFKNFKDDQSIQKSVETIKEDMNVKFFNSNKKKRDDFEKLTNYSVTDLNVQRKAIHELIQVMAELSPAAKTGKRKRSQMLFRG
modifications: interferon gamma-1b
decrease in (central) macular thickness versus baseline [4]: 25%
